Reference: the supplement of paper PMC11424490

What was measured:
NCI-H358 [1] = test: combination cScore with sotorasib (Bliss gap around IC50) (%PoC); higher = stronger additive effect
In short: (§1)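 The score averages the gap between expected and measured viability under Bliss independence, taken over a field around the IC50 of each single agent or, where an IC50 was not reached, at the highest concentrations. Viability came from CellTiter-Glo luminescence, normalised to vehicle wells as percent of control and fitted with four-parameter curves. NCI-H2122, NCI-H358 and SW837 cells were dosed in concentration matrices 24 h after seeding and grown for 72 h, or 144 h for SW837.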

NCI-H2122 [2] = test: as above
In short: as §1

SW837 [3] = test: as above
In short: as §1

NCI-H358 [4] = test: fitted bottom plateau of viability curve, % of DMSO control; higher = less maximal inhibition; extreme values may be limits of the assay
In short: (§2)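 In 384-well plates, NCI-H2122 cells were seeded at 800 cells/well and SW837 and NCI-H358 cells at 500 cells/well, all in 60 µl. Single compounds were added by acoustic dispensing in dose series 24 h later, with incubation for 72 h for NCI-H2122 and NCI-H358 and 144 h for SW837. CellTiter-Glo luminescence was read on an EnVision reader after 15 min shaking and expressed as percent of DMSO controls. A four-parameter nonlinear fit gave the relative IC50, averaged over replicates, and the lower plateau.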

NCI-H2122 [5] = test: as above
In short: as §2

SW837 [6] = test: as above
In short: as §2

Structure (SMILES) | combination cScore with sotorasib (NCI-H358 [1]) | combination cScore with sotorasib (NCI-H2122 [2]) | combination cScore with sotorasib (SW837 [3]) | fitted bottom plateau of viability curve (NCI-H358 [4]) [%] | fitted bottom plateau of viability curve (NCI-H2122 [5]) [%] | fitted bottom plateau of viability curve (SW837 [6]) [%]
O=C(O)CNC(=O)c1c(O)c2ccccc2n(Cc2ccccc2)c1=O [IOX2] + C=CC(=O)N1CCN(c2nc(=O)n(-c3c(C)ccnc3C(C)C)c3nc(-c4c(O)cccc4F)c(F)cc23)[C@@H](C)C1 [sotorasib] | 0.66 | 21.3 | 17.9 |  |  | 
CC(=O)c1c(C)c2cnc(Nc3ccc(N4CCNCC4)cn3)nc2n(C2CCCC2)c1=O [Palbociclib] + C=CC(=O)N1CCN(c2nc(=O)n(-c3c(C)ccnc3C(C)C)c3nc(-c4c(O)cccc4F)c(F)cc23)[C@@H](C)C1 [sotorasib] | 3.92 | 8.77 | 38.3 |  |  | 
C[C@H](Nc1ccc2c(c1)OCCn1cc(N3C(=O)OC[C@H]3C(F)F)nc1-2)C(N)=O [GDC-0077] + C=CC(=O)N1CCN(c2nc(=O)n(-c3c(C)ccnc3C(C)C)c3nc(-c4c(O)cccc4F)c(F)cc23)[C@@H](C)C1 [sotorasib] | 3.7 | 25.4 | 18.3 |  |  | 
C#Cc1cccc(Nc2ncnc3cc(OCCOC)c(OCCOC)cc23)c1 [Erlotinib] + C=CC(=O)N1CCN(c2nc(=O)n(-c3c(C)ccnc3C(C)C)c3nc(-c4c(O)cccc4F)c(F)cc23)[C@@H](C)C1 [sotorasib] | 10.2 | 27.4 | 23 |  |  | 
Cc1cc(C)c(CNC(=O)c2cc(-c3ccc(N4CCNCC4)nc3)cc3c2c(C)cn3C2CCCC2)c(=O)[nH]1 + C=CC(=O)N1CCN(c2nc(=O)n(-c3c(C)ccnc3C(C)C)c3nc(-c4c(O)cccc4F)c(F)cc23)[C@@H](C)C1 [sotorasib] | 2.26 | 10.7 | 1.67 |  |  | 
COc1cc(CCc2cc(NC(=O)c3ccc(N4CC(C)NC(C)C4)cc3)n[nH]2)cc(OC)c1 (stereo not drawn) [AZD4547] + C=CC(=O)N1CCN(c2nc(=O)n(-c3c(C)ccnc3C(C)C)c3nc(-c4c(O)cccc4F)c(F)cc23)[C@@H](C)C1 [sotorasib] | 5.01 | 11.8 | 8.33 |  |  | 
Cc1c(Cn2c(C)nc3c(C(=O)O)cc(N4CCOCC4)cc32)cccc1C(F)(F)F + C=CC(=O)N1CCN(c2nc(=O)n(-c3c(C)ccnc3C(C)C)c3nc(-c4c(O)cccc4F)c(F)cc23)[C@@H](C)C1 [sotorasib] | -2.39 | 5.26 | 9.96 |  |  | 
C[C@H](NC(=O)c1c(N)nn2cccnc12)c1cc2cccc(C#Cc3cnn(C)c3)c2c(=O)n1-c1ccccc1 [IPI-549] + C=CC(=O)N1CCN(c2nc(=O)n(-c3c(C)ccnc3C(C)C)c3nc(-c4c(O)cccc4F)c(F)cc23)[C@@H](C)C1 [sotorasib] | 2.47 | 15.1 | 4.45 |  |  | 
O=C(C1CC1)N1CC[C@@H](Cn2c(-c3ccc(-c4ccc5occc5c4)cc3)nc3cnccc32)C1 + C=CC(=O)N1CCN(c2nc(=O)n(-c3c(C)ccnc3C(C)C)c3nc(-c4c(O)cccc4F)c(F)cc23)[C@@H](C)C1 [sotorasib] | 1 | 14.4 | 13.8 |  |  | 
CCc1nc(N)nc(N)c1-c1ccc(Cl)cc1 [Pyrimethamine] + C=CC(=O)N1CCN(c2nc(=O)n(-c3c(C)ccnc3C(C)C)c3nc(-c4c(O)cccc4F)c(F)cc23)[C@@H](C)C1 [sotorasib] | -6.53 | 5.47 | -4.42 |  |  | 
CN(C)C/C=C/C(=O)Nc1cc2c(Nc3ccc(F)c(Cl)c3)ncnc2cc1O[C@H]1CCOC1 [Afatinib] + C=CC(=O)N1CCN(c2nc(=O)n(-c3c(C)ccnc3C(C)C)c3nc(-c4c(O)cccc4F)c(F)cc23)[C@@H](C)C1 [sotorasib] | 11.4 | 22.8 | 20.1 |  |  | 
C=CC(=O)N1CCC[C@@H](n2nc(-c3ccc(Oc4ccccc4)cc3)c3c(N)ncnc32)C1 [Ibrutinib] + C=CC(=O)N1CCN(c2nc(=O)n(-c3c(C)ccnc3C(C)C)c3nc(-c4c(O)cccc4F)c(F)cc23)[C@@H](C)C1 [sotorasib] | 14.4 | 27.9 | 13.3 |  |  | 
Cc1ccc(C(=O)Nc2ccc(CN3CCN(C)CC3)c(C(F)(F)F)c2)cc1C#Cc1cnc2cccnn12 [Ponatinib] + C=CC(=O)N1CCN(c2nc(=O)n(-c3c(C)ccnc3C(C)C)c3nc(-c4c(O)cccc4F)c(F)cc23)[C@@H](C)C1 [sotorasib] | 0.16 | 19.1 | 1.65 |  |  | 
O=P1(N(CCCl)CCCl)NCCCO1 (stereo not drawn) [Cyclophosphamide] + C=CC(=O)N1CCN(c2nc(=O)n(-c3c(C)ccnc3C(C)C)c3nc(-c4c(O)cccc4F)c(F)cc23)[C@@H](C)C1 [sotorasib] | 4.33 | -0.02 | -10.5 |  |  | 
CCN1CCN(Cc2ccc(Nc3ncc(F)c(-c4cc(F)c5nc(C)n(C(C)C)c5c4)n3)nc2)CC1 [Abemaciclib] + C=CC(=O)N1CCN(c2nc(=O)n(-c3c(C)ccnc3C(C)C)c3nc(-c4c(O)cccc4F)c(F)cc23)[C@@H](C)C1 [sotorasib] | 6.78 | 9.29 | 19.6 |  |  | 
COc1cc2/c(=N/c3ccc(Br)cc3F)nc[nH]c2cc1OCC1CCN(C)CC1 [Vandetanib] + C=CC(=O)N1CCN(c2nc(=O)n(-c3c(C)ccnc3C(C)C)c3nc(-c4c(O)cccc4F)c(F)cc23)[C@@H](C)C1 [sotorasib] | 7.76 | 28.4 | 22.6 |  |  | 
COc1cc(Nc2c(C#N)cnc3cc(OCCCN4CCN(C)CC4)c(OC)cc23)c(Cl)cc1Cl [Bosutinib] + C=CC(=O)N1CCN(c2nc(=O)n(-c3c(C)ccnc3C(C)C)c3nc(-c4c(O)cccc4F)c(F)cc23)[C@@H](C)C1 [sotorasib] | 5.71 | 8.9 | 11.2 |  |  | 
O=C(/C=C/c1cccc(S(=O)(=O)Nc2ccccc2)c1)NO [Belinostat] + C=CC(=O)N1CCN(c2nc(=O)n(-c3c(C)ccnc3C(C)C)c3nc(-c4c(O)cccc4F)c(F)cc23)[C@@H](C)C1 [sotorasib] | -2.69 | 10.8 | 9.09 |  |  | 
CCCc1cc(C)[nH]c(=O)c1CNC(=O)c1cc(-c2ccnc(N3CCN(C)CC3)c2)cc2c1cnn2C(C)C [GSK343] + C=CC(=O)N1CCN(c2nc(=O)n(-c3c(C)ccnc3C(C)C)c3nc(-c4c(O)cccc4F)c(F)cc23)[C@@H](C)C1 [sotorasib] | 2.88 | 8.7 | 9.75 |  |  | 
Cc1nc(-c2cn3c(n2)-c2ccc(-c4cnn(C(C)(C)C(N)=O)c4)cc2OCC3)n(C(C)C)n1 [Taselisib] + C=CC(=O)N1CCN(c2nc(=O)n(-c3c(C)ccnc3C(C)C)c3nc(-c4c(O)cccc4F)c(F)cc23)[C@@H](C)C1 [sotorasib] | 7.14 | 25.3 | 32.8 |  |  | 
CC(C)N(CCCNC(=O)Nc1ccc(C(C)(C)C)cc1)C[C@H]1O[C@@H](n2ccc3c(N)ncnc32)[C@H](O)[C@@H]1O (top concentration tested 50000 nM) |  |  |  | 81.5 | 67.3 | 93.4
